The text below walks through data of patent publication US6610744B2, “Methods of treatment with compounds having RARα receptor specific or selective activity” (Allergan, Inc., priority 1995, dated 2003).

≈ marks a conversion by molar mass, not a printed value.

One data set addresses T1, RXRβ (Homo sapiens, UniProt P28702).
T1 construct: made in house; host or cells: Baculovirus expression (insect cell extract)
T1 sequence (P28702 1-533): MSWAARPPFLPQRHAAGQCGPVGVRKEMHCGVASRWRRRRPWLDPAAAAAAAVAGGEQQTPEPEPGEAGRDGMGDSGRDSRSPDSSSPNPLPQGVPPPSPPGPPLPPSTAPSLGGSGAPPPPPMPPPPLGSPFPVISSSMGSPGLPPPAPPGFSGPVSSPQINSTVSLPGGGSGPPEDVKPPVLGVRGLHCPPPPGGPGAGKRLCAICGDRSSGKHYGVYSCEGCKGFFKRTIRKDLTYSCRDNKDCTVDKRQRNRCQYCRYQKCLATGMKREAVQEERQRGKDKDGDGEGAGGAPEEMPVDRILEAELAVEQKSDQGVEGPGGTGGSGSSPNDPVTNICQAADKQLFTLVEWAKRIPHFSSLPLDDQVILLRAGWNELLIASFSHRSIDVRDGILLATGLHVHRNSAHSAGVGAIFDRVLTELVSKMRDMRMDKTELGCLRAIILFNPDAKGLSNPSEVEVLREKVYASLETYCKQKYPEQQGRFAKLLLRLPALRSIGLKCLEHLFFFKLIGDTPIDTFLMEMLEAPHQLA
Put plainly: Ligand binding assay, RXRβ. The procedure:
All binding assays were performed in a similar fashion. All six receptor types were derived from the expressed receptor type (RARα, β, Γ and RXRα, β, Γ) expressed in Baculovirus. Stock solutions of all compounds were prepared as 10 mM ethanol solutions and serial dilutions carried out into 1:1 DMSO; ethanol. Assay buffers consisted of the following for all six receptor assays: 8% glycerol, 120 mM KCl 8 mM Tris, 5 mM CHAPS 4 mM DTT and 0.24 mM PMSF, pH-7.4@ room temperature.
All receptor binding assays were performed in the same manner. The final assay volume was 250 μl and contained from 10-40 μg of extract protein depending on receptor being assayed along with 5 nM of [^3H] all-trans retinoic acid or 10 nM [^3H] 9-cis retinoic acid and varying concentrations of competing ligand at concentrations that ranged from 0-10^−5 M. The assays were formatted for a 96 well minitube system. Incubations were carried out at 4° C. until equilibrium was achieved. Non-specific binding was defined as that binding remaining in the presence of 1000 nM of the appropriate unlabeled retinoic acid isomer. At the end of the incubation period, 50 μl of 6.25% hydroxyapitite was added in the appropriate wash buffer. The wash buffer consisted of 100 mM KCl, 10 mM Tris and either 5 mM CHAPS (RXRα, β, Γ) or 0.5% Triton X-100 (RARα, β, Γ). The mixture was vortexed and incubated for 10 minutes at 4° C., centrifuged and the supernatant removed. The hydroxyapitite was washed three more times with the appropriate wash buffer. The receptor-ligand complex was adsorbed by the hydroxyapitite. The amount of receptor-ligand complex was determined by liquid scintillation counting of hydroxyapitite pellet.
After correcting for non-specific binding, IC50 values were determined. […] The IC50 value was determined graphically from a loglogit plot of the data. The […] were determined by application of the Cheng-Prussof equation to the IC50 values, the labeled ligand concentration and the Kd of the labeled ligand.
The results of ligand binding assay are expressed in Kd numbers. (See Cheng et al. Biochemical Pharmacology Vol. 22 pp 3099-3108, expressly incorporated herein by reference.)

Data set [1] has as its system retinal pigment epithelium (RPE) cells. Put plainly: Primary RPE culture proliferation. It is filed as cell-based, human. The following applies: FIG. 5; 10^−10 to 10^−6 M, six days treatment. The method, then:
Primary cultures of human retinal pigment epithelium (RPE) were established from eyes as previously described, (Campochiaro et al., Invest. Opthal & Vis. Sci. 32:65-72 (1991)). 5×10^4 Cells were plated in 16-mm wells of 24-well multiwell plates in Dulbecco's modified Eagle's medium (DMEM Gibco) containing 10% fetal bovine serum (FBS). Cells were treated with ethanol alone (control), ATRA (10^−10 to 10^−6 M) in ethanol, and Compound 42 (10^−10 to 10^−6 M) in ethanol. Cells were fed with fresh media containing the appropriate concentrations of these compounds every two days for a total of six days treatment. Cells were removed from the plates via treatment with trypsin and the number of cells were counted with an electronic cell counter.

For data set [2], the system named is limb bud mesenchymal cells. Nature of the data set: Chondrogenesis suppression bioassay (teratogenic potency). It is filed as cell-based. The following applies: read-out: IC50 (50% inhibition of chondrogenesis); mouse limb bud spot cultures, 96 hours after plating; greater IC50 signifies lesser teratogenecity. A digest of the protocol:
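Day-12 mouse forelimb-bud mesenchymal cells were grown as high-density spot cultures in Eagle's MEM ±10% FBS, with retinoid (0.3 ng/ml–3 μg/ml, 1 nM–10 μM; ethanol vehicle ≤1%) added at 24 h. At 96 h, cultures were fixed and Alcian blue–stained (pH 1.0), and cartilage nodules were counted (four replicates) to give IC50 in ng/ml.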

Data set [3] is described as follows: Guinea pig osmotic pump toxicity experiment. The following applies: guinea pigs, intraperitoneal osmotic pump, 14 days; for depression of weight gain relative to control: FIG. 8. It is filed as in vivo. The procedure: In another experiment three-week old male Hartley guinea pigs were implanted intraperitonially with osmotic pumps containing 20% DMSO/80 polyethylene glycol (vehicle) or Compound 42 at concentrations of 4.4, 13.3 or 40 mg/ml in vehicle. Based on the initial body weights and known pumping rate, approximate doses of 0, 2, 6, and 18 mg/kg/day doses of Compound 42 are estimated. Body weights and clinical observations were recorded at least every other day for 14 days post-implantation. The guinea pigs were euthanized after 14 days, and the pumps were examined for possible failure.

Consider `CC(C)(C)c1cc(C(=O)Nc2ccc(C(=O)O)c(F)c2)cc(C(C)(C)C)n1` [Compound 42], for which, at RXRβ, the Kd was above 1 µM. Further, the RPE cell proliferation result in data set [1] is given as “dose dependent decrease in RPE cell proliferation”. Besides, in data set [2], the IC50 stood at 0.065 mg/L (≈ 0.175 µM). In addition, in data set [3] (any dose (2, 6, 18 mg/kg/day)), the mucocutaneous toxicity result was “no signs of mucocutaneous toxicity”. Besides, the “depression of weight gain relative to control” value in data set [3] (high dose (18 mg/kg/day)) is given as “Significant depression of weight gain”; in data set [3] (lower and middle doses (approx. 2 and 6 mg/kg/day)), “no, or only statistically insignificant depression of weight gain”.

One may read the Kd as a measure of binding affinity in units of concentration. Higher therefore signals weaker binding. By IC50 is commonly meant the concentration that gives 50% inhibition.
